The values below come from paper PMC6934184, “Selective DNA-PKcs inhibition extends the therapeutic index of localized radiotherapy and chemotherapy” (The Journal of Clinical Investigation, 2019).

Molecules are shown by their SMILES.

This test concerns the target T1, PDGFRA T674I (Homo sapiens, UniProt P16234, T674I).
T1 construct: purchased Thermo Fisher Scientific (Life Technologies) SelectScreen
As to the kind of experiment: SelectScreen Z'LYTE. The class given is biochemical. In a few lines:
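SelectScreen broad panel; activity (Z'LYTE, Adapta) plus binding formats. ATP: Km app for CSF1R Z'LYTE; 10 for CAMK1 Adapta. Readout = % per kinase.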

As usually defined, the inhibition is the drop in the measured response relative to a control, in per cent.

T1 sequence (P16234 24-1089 T674I): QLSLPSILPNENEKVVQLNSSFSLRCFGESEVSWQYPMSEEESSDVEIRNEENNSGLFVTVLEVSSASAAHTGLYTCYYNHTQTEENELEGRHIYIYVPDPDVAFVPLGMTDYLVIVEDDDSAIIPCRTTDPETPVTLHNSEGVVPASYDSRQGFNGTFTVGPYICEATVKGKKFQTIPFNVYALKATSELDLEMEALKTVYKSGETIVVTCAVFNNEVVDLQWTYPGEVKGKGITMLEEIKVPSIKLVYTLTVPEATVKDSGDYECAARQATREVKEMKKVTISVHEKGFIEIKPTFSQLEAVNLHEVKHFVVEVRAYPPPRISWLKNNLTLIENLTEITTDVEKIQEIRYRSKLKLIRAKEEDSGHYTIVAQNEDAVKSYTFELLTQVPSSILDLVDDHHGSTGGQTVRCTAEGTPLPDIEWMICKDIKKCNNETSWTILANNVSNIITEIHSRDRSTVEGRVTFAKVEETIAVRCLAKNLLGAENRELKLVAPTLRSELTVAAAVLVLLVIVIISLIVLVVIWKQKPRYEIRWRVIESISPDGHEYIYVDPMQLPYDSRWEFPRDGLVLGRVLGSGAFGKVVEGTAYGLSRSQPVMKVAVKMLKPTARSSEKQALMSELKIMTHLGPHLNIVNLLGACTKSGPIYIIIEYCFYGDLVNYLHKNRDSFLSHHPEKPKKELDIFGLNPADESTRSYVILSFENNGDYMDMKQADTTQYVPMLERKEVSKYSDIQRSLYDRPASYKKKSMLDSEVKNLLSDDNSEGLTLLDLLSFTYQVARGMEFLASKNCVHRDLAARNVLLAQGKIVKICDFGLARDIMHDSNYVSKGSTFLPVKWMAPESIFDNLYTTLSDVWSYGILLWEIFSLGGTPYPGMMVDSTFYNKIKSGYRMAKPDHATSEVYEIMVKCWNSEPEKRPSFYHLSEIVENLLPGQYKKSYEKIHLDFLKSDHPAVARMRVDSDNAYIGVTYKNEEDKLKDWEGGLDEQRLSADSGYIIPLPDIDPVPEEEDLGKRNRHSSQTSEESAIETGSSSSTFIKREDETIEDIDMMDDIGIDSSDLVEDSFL

As for `CN(C(=O)CN1CCOCC1)c1ccc2sc3c(-c4cccc5c(=O)cc(N6CC7CCC(C6)O7)oc45)cccc3c2c1` [NU5455], the inhibition at 1 µM was -8.9%.
